Biological target: T1, human alpha 7-wt nAChR-expressing GH4C1 cells (Homo sapiens, UniProt P36544)
T1 construct: expressed in transfected cells
Experiment: Patch-clamp current recording (whole-cell voltage-clamp, PAM type classification)
Format: cell-based
Design: key: Type 0 compounds minimally change the effect size of the current elicited by 1 mM choline.; Type 1 compounds enhance the effect size of the current elicited by 1 mM choline but minimally alter the kinetics of the receptor.; Type 2 compounds enhance the effect size of the current elicited by 1 mM choline while reducing the rate and/or the extent of desensitization.; Type 3 compounds enhance the effect size of the current elicited by 1 mM choline. When tested at higher concentrations up to 10 μM they completely inhibit desensitization; Type 4 compounds allow for an initial desensitization of the receptor followed by a re-opening of the receptor during agonist application
Settings: 1 mM choline
Summary of the method: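 Whole-cell voltage clamp of GH4C1 cells stably expressing human wild-type α7 nAChR, with compound co-applied with 1 mM choline via rapid (<100 ms) solution switching; external pH 7.3, CsCl-based internal solution, 1.5-3 MΩ electrodes. PAM type (0-4) assigned from current kinetics when peak potentiation reached ≥200% of control choline response.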

T1 sequence (P36544 23-502): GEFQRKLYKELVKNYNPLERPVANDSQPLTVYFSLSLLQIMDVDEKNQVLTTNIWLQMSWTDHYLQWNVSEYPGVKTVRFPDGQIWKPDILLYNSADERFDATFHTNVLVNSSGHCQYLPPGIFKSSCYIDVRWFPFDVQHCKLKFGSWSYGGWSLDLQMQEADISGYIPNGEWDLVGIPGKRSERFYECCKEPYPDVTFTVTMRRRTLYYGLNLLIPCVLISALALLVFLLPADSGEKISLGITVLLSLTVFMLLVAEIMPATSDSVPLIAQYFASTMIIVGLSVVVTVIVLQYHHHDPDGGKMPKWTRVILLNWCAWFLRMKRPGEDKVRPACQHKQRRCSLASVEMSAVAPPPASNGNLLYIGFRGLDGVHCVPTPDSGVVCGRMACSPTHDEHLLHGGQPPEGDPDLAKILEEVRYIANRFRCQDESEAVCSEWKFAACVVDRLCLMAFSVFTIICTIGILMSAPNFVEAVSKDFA

Structure (SMILES) | PAM_Type PAM type
Cc1cc(-c2sc(N3C[C@@H](C)O[C@@H](C)C3)nc2CNC(=O)CC2CC2)cc(C)n1 [Compound 1, N-[[2-[(2R,6S)-2,6-dimethyl-4-morpholinyl]-5-(2,6-dimethyl-4-pyridinyl)-4-thiazolyl]methyl]-cyclopropaneacetamide] | 2
Cc1cc(-c2sc(N3C[C@@H](C)O[C@@H](C)C3)nc2CNC(=O)c2conc2C)cc(C)n1 [Compound 18, N-[[2-[(2R,6S)-2,6-dimethyl-4-morpholinyl]-5-(2,6-dimethyl-4-pyridinyl)-4-thiazolyl]methyl]-3-methyl-4-isoxazolecarboxamide] | 2
